Data taken from US20110213025A1, “Catheter Lock Solutions Utilizing Tocopherol and Mid-Chain Fatty Acids” (ProviFlo, LLC, priority 2009, published 2011).

Test: saturation point of dodecanoic acid in the liquid lock components at room temperature
Assay type: physicochemical
Details: without heating, soluble in octanoic acid, decanoic and tocopherol, weight/volume
Description: In a fifth aspect of the present invention, a hydrophobic antimicrobial catheter lock solution includes alpha-tocopherol, in a concentration of 0% to 50% by volume/volume and mid-chain fatty acids. The fatty acids may include any combination of octanoic acid (0% to 25% volume/volume), decanoic acid (0% to 12.5% volume/volume), and/or dodecanoic acid (0% to 12.5% weight/volume). The combined formula after dissolving and mixing the chosen mid-chain fatty acid(s) is adjusted to a final volume with the alpha-tocopherol so that the solution has a viscosity greater than about 3 mPa·s. The lock has a viscosity in the range of about 3-5 mPa·s. Dodecanoic acid is a solid soluble in octanoic acid, decanoic and tocopherol. Concentrations of dodecanoic acid of less than about 25% dissolve readily without heating (i.e. 25% is approximately the saturation point of dodecanoic acid at room temperature). Optimal concentrations are most easily achieved by dissolution of dodecanoic acid in octanoic acid prior to adding the tocopherol. Of course, it is also possible to mix any or all of the liquid ingredients (i.e. octanoic acid and/or decanoic acid and/or tocopherol) together first and secondarily dissolve the dodecanoic acid. Alternatively, dodecanoic acid could be mixed with any of the liquids and the remaining liquid components added depending on the concentration of dodecanoic acid. […]

- saturation point of dodecanoic acid: about 25%
SMILES: CCCCCCCCCCCC(=O)O [dodecanoic acid]
